# From patent US12133541B2, “Feed composition comprising hexahydro-β-acid component compounds and application thereof” (WISORIG TECHNOLOGIES PTE. LIMITED, priority 2019, dated 2024)
# “Also recorded” adds a separate entry of the source. Like-named read-outs stand apart in the source and are kept apart here.
# Columns and labels:
# [1] = Stability testing at ambient temperature of feeds (HPLC); format: physicochemical; conditions: for Concentration (%) Day 5 / Concentration (%) Day 10: room temperature, day 0 = 100%
# Source text: Stability testing at ambient temperature: The samples were placed in a room-temperature environment. Samples were taken on day 5 and day 10 for HPLC analysis, and three replications were taken in parallel for each test sample.
# [2] = Breeding experiment: production performance of hogs; format: in vivo, Duroc×Landrace×Yorkshire cross-bred bacon-type piglets; conditions: for ADFI (g/d per piglet) / ADG (g/d per piglet) / FCR: basal ration with 25 ppm of active ingredient; for ADFI (g/d per piglet) / ADG (g/d per piglet) / FCR / animal production performance compared with the hexahydro-β-acids (in words) / change rate of feed intake compared with the control group / change rate of weight gain compared with the control group / decrease rate of feed conversion ratio compared with the control group: 14 days; for ADFI (g/d per piglet) / ADG (g/d per piglet): 67-day-old piglets; for FCR: feed intake/weight gain; for animal production performance compared with the hexahydro-β-acids (in words) / change rate of feed intake compared with the control group / change rate of weight gain compared with the control group / decrease rate of feed conversion ratio compared with the control group / average daily weight gain vs control (in words): piglets; for animal production performance compared with the hexahydro-β-acids (in words) / change rate of feed intake compared with the control group / change rate of weight gain compared with the control group / decrease rate of feed conversion ratio compared with the control group: 25 ppm; for average daily weight gain vs control (in words): difference above 5% deemed obvious
# Source text: 240 67-day-old Duroc×Landrace×Yorkshire cross-bred bacon-type piglets with similar body weight, were randomly divided into 8 groups, with 3 replications per group, 10 piglets per replication and equal amount of males and females. The pig pen and tools were sterilized before the experiment. During the experiment, the piglets were kept in separate regions in the same pig pen under the same feeding and management conditions. The piglets were given ad libitum access to food and water, and feeds were provided twice every day. The groups were control group (group 1) and test groups 2 to 8, wherein piglets of the control group were given basal ration only, those of the test groups 2 to 8 were respectively given basal ration in combination with different additives with 25 ppm of active ingredient thereof, wherein the active ingredient was hexahydro-β-acids, or the hexahydro-β-acid compounds, or the coated substances of the hexahydro-β-acid compounds, as shown in Table 3.
# During the entire process, each test group was not given other antioxidants or growth promoters. The experiment lasted for 14 days. On the 14th day, after withdrawing feed (without withdrawing water) for 12 hours, taking each replicate as one unit, the weight of each replication piglets was measured and each of average daily feed intake (ADFI, g/d per piglet), average daily weigh gain (ADG, g/d per piglet), and feed conversion ratio (FCR) was calculated. Average daily feed intake=(Total weight of provided feed−Weight of remaining feed)/(Number of days×Amount of piglets in each replicate) Average daily weight gain=(final average body weight−initial average body weight)/number of test days Feed conversion ratio=average daily feed intake/average daily weight gain
# [3] = Thermal stability testing at 60° C. (HPLC); conditions: for Concentration (%) Day 5 / Concentration (%) Day 10: day 0 = 100%; for degradation ratio: 10-day testing period
# Protocol: (§1) 50 mg of standard substance was accurately weighed out and dissolved in an appropriate amount of methanol by ultrasonication. The solution was then transferred to a 50 mL volumetric flask and diluted to volume with methanol to give a stock solution. Working solutions with concentration as 25 ppm, 125 ppm, 250 ppm, 500 ppm, and 1000 ppm were prepared respectively by the dilution of appropriate amount of the stock solution.
# (§2) • Column: Symmetry C18 column (Waters; 250 mm*4.6 mm, 5 μm) • Mobile phase: 0.02% phosphoric acid:methanol=5:95 (v:v) • Wavelength: 223 nm • Column temperature: 25° C. • Injection volume: 10 μL • Flow rate: 1 mL/min
# (§3) Thermal stability testing: The test samples were spread in petri dishes to form thin layers of ≤5 mm and placed in a drug stability testing chambers at 60° C. Samples were taken with 3 replications in parallel for each of test samples on day 5 and day 10 for HPLC analysis.
# [4] = Breeding experiment: production performance of broilers; format: in vivo, yellow broilers; conditions: 30 days; for ADFI (g/d per broiler) / ADG (g/d per broiler) / FCR: basal ration with 25 ppm of active ingredient; for ADFI (g/d per broiler) / ADG (g/d per broiler): 1-day-old yellow broilers; for FCR: feed intake/weight gain
# Protocol: The experiment was conducted with single-factor randomized design. 720 1-day-old yellow broilers with a similar average body weight of 50 g, were randomly divided into 8 groups, with 6 replicates per group, equal amount of males and females and 15 yellow broilers per replicate. The chicken house and tools were sterilized before the experiment. During the experiment, the broilers were kept in separate regions in the same chicken house under the same feeding and management conditions. Basal ration mainly consisted of corn and soybean meal. During the entire process, each group was not given other antioxidants or growth promoters. The groups were control group (group 1) and test groups 2 to 8, wherein the control group was given basal ration only, while the test groups 2 to 8 were respectively given basal ration in combination with the different additives with 25 ppm of the active ingredient thereof, wherein the active ingredient was hexahydro-β-acids, or the hexahydro-β-acid compounds, or the coated substances of the hexahydro-β-acid compounds as shown in Table 4.
# The experiment lasted for 30 days. The broilers were given ad libitum access to food and water, and feeds were provided twice every day. At the day when the broilers were 31-day old (after withdrawing feed for 12 hours, without withdrawing water), taking each replicate as one unit, body weight of the broilers was measured, and each of average daily feed intake (ADFI, g/d per broiler), average daily weigh gain (ADG, g/d per broiler), and feed conversion ratio (FCR) was calculated. Feed conversion ratio (FCR)=average daily feed intake/average daily weight gain
# [5] = 10 day, 1 wt %
# Protocol: as §1, §2, §3
# [6] = component within feed comprising 25 ppm of hexahydro-β-acids
# [7] = 1% premix of hexahydro-β-acid compound
# [8] = component within 1% premix of hexahydro-β-acids
# [9] = component within hexahydro-β-acids
# [10] = hexahydro-β-acid compound (free or coated substance)
# [11] = feed comprising 25 ppm of hexahydro-β-acid compound
"Concentration (%) Day 5 [1, 6] [%]","Concentration (%) Day 10 [1, 6] [%]","Concentration (%) Day 5 [3, 7] [%]","Concentration (%) Day 10 [3, 7] [%]","Concentration (%) Day 5 [3, 8] [%]","Concentration (%) Day 10 [3, 8] [%]","Concentration (%) Day 5 [3, 9] [%]","Concentration (%) Day 10 [3, 9] [%]","Concentration (%) Day 5 [3, 10] [%]","Concentration (%) Day 10 [3, 10] [%]",Compound,stability in feeds (in words) ([1]; ambient temperature),ADFI (g/d per piglet) [2] [g/d per piglet],ADG (g/d per piglet) [2] [g/d per piglet],FCR [2],change rate of feed intake compared with the control group [2] [%],change rate of weight gain compared with the control group [2] [%],decrease rate of feed conversion ratio compared with the control group [2] [%],ADFI (g/d per broiler) [4] [g/d per broiler],ADG (g/d per broiler) [4] [g/d per broiler],FCR [4],also measured
60.55,0,97.24,95.68,88.97,88.63,91.48,82.87,98.01,96.63,hexahydro-adlupulone,excellent short-term stability; also recorded: favourable stability,860,368,2.340,1.49,2.79,3.98,50.06,24.59,2.04,"animal production performance compared with the hexahydro-β-acids (in words) [2]: improve the animal production performance effectively; average daily weight gain vs control (in words) [2]: obvious increase; degradation ratio ([3]; 1% premix of the compound): 4.3%; change rate of feed intake compared with the control group ([4]; broilers, 25 ppm): 1.03%; change rate of weight gain compared with the control group ([4]; broilers, 25 ppm): 6.27%; decrease in feed conversion ratio / feed efficiency (in words) ([4]; broilers, 25 ppm): more effective than hexahydro-β-acids; decrease rate of feed conversion ratio compared with the control group ([4]; broilers, 25 ppm): 4.67%"
63.08,0,92.37,91.21,89.92,87.62,91.97,79.62,99.10,92.85,hexahydro-lupulone [reference compound],very poor stability in feeds,864,358,2.413,−1.03,0,0.98,49.13,23.58,2.08,"decrease of active compound in feed ([1]; ambient temperature, 10-day period, feed with 25 ppm): 95%; Concentration (%) Day 5 [1, 11]: 17.78%; Concentration (%) Day 10 [1, 11]: 4.96%; degradation ratio ([3]; 1% premix of the compound): 8.8%; degradation ratio ([3]; compound or coated substance): 7.2%; change rate of feed intake compared with the control group ([4]; broilers, 25 ppm): −0.85%; change rate of weight gain compared with the control group ([4]; broilers, 25 ppm): 1.90%; decrease rate of feed conversion ratio compared with the control group ([4]; broilers, 25 ppm): 2.80%"
53.88,37.69,99.39,97.39,97.02,97.56,96.48,90.43,99.76,99.10,"CC(C)CCC1=C(O)C(C(=O)C(C)C)=C(O)C(CCC(C)C)(CCC(C)C)C1=O [Hexahydro-colupulone, hexahydro-colupulone]",excellent short-term stability; also recorded: favourable stability,894,403,2.218,2.40,12.57,8.99,49.68,25.19,1.97,"animal production performance compared with the hexahydro-β-acids (in words) [2]: improve the animal production performance effectively; average daily weight gain vs control (in words) [2]: obvious increase; decrease in the concentration ([3]; day 10, component within 1% premix of hexahydro-β-acids): about 2.4%; decrease in the concentration ([3]; day 10, component within hexahydro-β-acids): about 10%; degradation ratio [5]: 2.6%; change rate of feed intake compared with the control group ([4]; broilers, 25 ppm): 0.26%; change rate of weight gain compared with the control group ([4]; broilers, 25 ppm): 8.86%; decrease rate of feed conversion ratio compared with the control group ([4]; broilers, 25 ppm): 7.94%"
